Assay results taken from patent publication US12194004B2, “Nano-delivery carrier for targeted tumor administration and application thereof” (Guizhou Provincial People's Hospital, priority 2023, dated 2025).

System: SKOV3 cells
Experiment: Cell viability detection with CCK-8 detection reagent
Format: cell-based
Conditions: SKOV3 cells treated at different (increasing) concentrations for 24 h
Experimental: In order to verify whether RVT can cause death of the tumor cells, SKOV3 cells are treated with RVT at different concentrations for 24 h, and viability of the SKOV3 cells treated with RVT is detected by using a cell counting kit-8 (CCK-8) detection reagent.
In addition, the SKOV3 cells are treated with PEG-SPIO at different concentrations for 24 h, and the viability of the SKOV3 cells treated with PEG-SPIO is detected by using the CCK-8 detection reagent.
Furthermore, the SKOV3 cells are treated with RVT-encapsulated PEG-SPIO-RVT nanoparticles for 24 h, and the viability of the SKOV3 cells treated with RVT-encapsulated PEG-SPIO-RVT nanoparticles is detected by using the CCK-8 detection reagent. The results are the same as that of treating with RVT alone.

Oc1ccc(/C=C/c2cc(O)cc(O)c2)cc1 [RVT, 3,4′,5-trihydroxy-trans-stilbene]
viability of the SKOV3 cells: gradually shows a downward trend
